Reference: US12569509B2, “Method and composition for preventing and treating viral infections” (priority 2017, dated 2026)
Entries after “also recorded” stand apart in the source; their conditions may differ.

Tests used:
[1] = system: human PBMC; test: LPS stimulated cytokine secretion in human PBMC pretreated with compounds (Phase 2); format: cell-based; parameters: TNF-α concentration in supernatant / IL-1β concentration in supernatant / IL-6 concentration in supernatant / IL-2 concentration in supernatant / IFN-g concentration in supernatant: unit of the concentration uncertain; settings: for Effect on LPS stimulated secretion of IL-1b / Effect on LPS stimulated secretion of IL-6: 200 mM (so in the source), 2 h pretreatment, 1 ng/mL LPS 8 hours; for IL-2 concentration in supernatant / TNF-α concentration in supernatant / IL-1β concentration in supernatant / IFN-g concentration in supernatant / IL-6 concentration in supernatant: 8-hour 1 ng/mL LPS stimulation; for IL-2 concentration in supernatant: LLOQ = 1.698 pg/mL; for TNF-α concentration in supernatant: LLOQ = 2.018 pg/mL; for IL-1β concentration in supernatant: LLOQ = 2.299 pg/mL; for IFN-g concentration in supernatant: LLOQ = 2.792 pg/mL; for IL-6 concentration in supernatant: LLOQ = 0.831
Excerpt: Results are represented as fold-change relative to LPS treatment alone for each cytokine calculated by means from 3 separate donors.
RPMI medium alone, RPMI supplemented with 0.2% DMSO (to mimic treatment conditions) or LPS stimulation alone were used as controls.
Except for the two negative control conditions, all 3 donors responded to all experimental conditions tested with the secretion of TNF-α, IL-1β, and IL-6 albeit with a high degree of variability.

[2] = system: human PBMC; test: Test compound induced cytokine secretion in human PBMC without LPS, 10 or 26 hours (Phase 1); settings: 100 mM (so in the source), 10 hours, no LPS
Protocol: Secretion of the cytokines TNF-α (A), IL-1β (B) and IL-6 (C) were measured in supernatant of PBMC cultured in the presence of test compounds using a Luminex platform with the Milliplex MAP Human High Sensitivity T Cell Panel Immunology Multiplex Assay. Results are represented as a mean from 3 separate donors in pg/mL.
Whole blood was collected from 3 human donors and peripheral blood mononuclear cells (PBMC) were isolated using the Ficoll-Paque density gradient method. PBMC were then plated and left untouched for 2 hours to account for a 2 hours pretreatement period (see below for details), and incubated for 8 or 24 hours in a humidified incubator set to maintain 37° C. with 5% CO2, with different concentrations of LPS as per Table 11 in order to determine the optimal stimulation conditions to detect cytokine release. […] RPMI medium alone or supplemented with 0.1% DMSO (to mimic treatment conditions) were used as negative controls.
At the end of the incubation period, supernatant samples were recovered and stored at −80° C. until analysis (in duplicate) using a Luminex platform with the Milliplex MAP Human High Sensitivity T Cell Panel Immunology Multiplex Assay (Cat. No. HSTCMAG-28SK) with the following selected cytokines of interest: IL-1, IL-2, IL-6, IFN-g and TNF-α. Each assay was defined by one calibration curve and 2 sets of QCs and the results were expressed as pg/mL.

For O=C(O)c1cc(O)c(O)c(O)c1 [Gallic Acid, Gallic acid], the “Effect on LPS stimulated secretion of IL-1b” value [1] was “inhibition”, the “Effect on LPS stimulated secretion of IL-6” value [1] was “inhibition” and the “Effect on LPS stimulated secretion of IL-1b” value ([1]; listed as gallic acid) was “decrease; also recorded: inhibits”. The “Effect on LPS stimulated secretion of IL-6” value ([1]; listed as gallic acid) was “decrease; also recorded: inhibits”, the “IL-2 concentration in supernatant” value ([1]; Donor 1, 10 (unit uncertain)) was “<LLOQ” and the “TNF-α concentration in supernatant” value ([1]; Donor 1, 10 (unit uncertain)) was 2295.37 pg/mL. The “IL-1β concentration in supernatant” value ([1]; Donor 1, 10 (unit uncertain)) was 4009.57 pg/mL, the “IFN-g concentration in supernatant” value ([1]; Donor 1, 10 (unit uncertain)) was “<LLOQ” and the “IL-6 concentration in supernatant” value ([1]; Donor 1, 10 (unit uncertain)) was 1244.44 pg/mL. The “IL-2 concentration in supernatant” value ([1]; Donor 1, 100 (unit uncertain)) was “<LLOQ”, the “TNF-α concentration in supernatant” value ([1]; Donor 1, 100 (unit uncertain)) was 2673.83 pg/mL and the “IL-1β concentration in supernatant” value ([1]; Donor 1, 100 (unit uncertain)) was 2029.63 pg/mL. For the same compound, the “IFN-g concentration in supernatant” value ([1]; Donor 1, 100 (unit uncertain)) was “<LLOQ”, the “IL-6 concentration in supernatant” value ([1]; Donor 1, 100 (unit uncertain)) was 776.23 pg/mL and the “IL-2 concentration in supernatant” value ([1]; Donor 1, 200 (unit uncertain)) was “<LLOQ”. The “TNF-α concentration in supernatant” value ([1]; Donor 1, 200 (unit uncertain)) was 1973.87 pg/mL, the “IL-1β concentration in supernatant” value ([1]; Donor 1, 200 (unit uncertain)) was 905.16 pg/mL and the “IFN-g concentration in supernatant” value ([1]; Donor 1, 200 (unit uncertain)) was “<LLOQ”. The “IL-6 concentration in supernatant” value ([1]; Donor 1, 200 (unit uncertain)) was 466.09 pg/mL, the “IL-2 concentration in supernatant” value ([1]; Donor 2, 10 (unit uncertain)) was “<LLOQ” and the “TNF-α concentration in supernatant” value ([1]; Donor 2, 10 (unit uncertain)) was 924.89 pg/mL. For the same compound, the “IL-1β concentration in supernatant” value ([1]; Donor 2, 10 (unit uncertain)) was 2259.03 pg/mL, the “IFN-g concentration in supernatant” value ([1]; Donor 2, 10 (unit uncertain)) was “<LLOQ” and the “IL-6 concentration in supernatant” value ([1]; Donor 2, 10 (unit uncertain)) was 547.26 pg/mL. For the same compound, the “IL-2 concentration in supernatant” value ([1]; Donor 2, 100 (unit uncertain)) was “<LLOQ”, the “TNF-α concentration in supernatant” value ([1]; Donor 2, 100 (unit uncertain)) was 2001.65 pg/mL and the “IL-1β concentration in supernatant” value ([1]; Donor 2, 100 (unit uncertain)) was 1867.42 pg/mL. For the same compound, the “IFN-g concentration in supernatant” value ([1]; Donor 2, 100 (unit uncertain)) was “<LLOQ”, the “IL-6 concentration in supernatant” value ([1]; Donor 2, 100 (unit uncertain)) was 694.6 pg/mL and the “IL-2 concentration in supernatant” value ([1]; Donor 2, 200 (unit uncertain)) was “<LLOQ”. For the same compound, the “TNF-α concentration in supernatant” value ([1]; Donor 2, 200 (unit uncertain)) was 1867.55 pg/mL, the “IL-1β concentration in supernatant” value ([1]; Donor 2, 200 (unit uncertain)) was 858.76 pg/mL and the “IFN-g concentration in supernatant” value ([1]; Donor 2, 200 (unit uncertain)) was “<LLOQ”. For the same compound, the “IL-6 concentration in supernatant” value ([1]; Donor 2, 200 (unit uncertain)) was 426.3 pg/mL, the “IL-2 concentration in supernatant” value ([1]; Donor 3, 10 (unit uncertain)) was “<LLOQ” and the “TNF-α concentration in supernatant” value ([1]; Donor 3, 10 (unit uncertain)) was 4990.73 pg/mL. For the same compound, the “IL-1β concentration in supernatant” value ([1]; Donor 3, 10 (unit uncertain)) was 4065.13 pg/mL, the “IFN-g concentration in supernatant” value ([1]; Donor 3, 10 (unit uncertain)) was “<LLOQ” and the “IL-6 concentration in supernatant” value ([1]; Donor 3, 10 (unit uncertain)) was 547.26 pg/mL. The “IL-2 concentration in supernatant” value ([1]; Donor 3, 100 (unit uncertain)) was “<LLOQ”, the “TNF-α concentration in supernatant” value ([1]; Donor 3, 100 (unit uncertain)) was 3070.21 pg/mL and the “IL-1β concentration in supernatant” value ([1]; Donor 3, 100 (unit uncertain)) was 1788.4 pg/mL. The “IFN-g concentration in supernatant” value ([1]; Donor 3, 100 (unit uncertain)) was “<LLOQ”, the “IL-6 concentration in supernatant” value ([1]; Donor 3, 100 (unit uncertain)) was 694.6 pg/mL and the “IL-2 concentration in supernatant” value ([1]; Donor 3, 200 (unit uncertain)) was “<LLOQ”. The “TNF-α concentration in supernatant” value ([1]; Donor 3, 200 (unit uncertain)) was 4121.3 pg/mL, the “IL-1β concentration in supernatant” value ([1]; Donor 3, 200 (unit uncertain)) was 1478.91 pg/mL and the “IFN-g concentration in supernatant” value ([1]; Donor 3, 200 (unit uncertain)) was “<LLOQ”. For the same compound, the “IL-6 concentration in supernatant” value ([1]; Donor 3, 200 (unit uncertain)) was 426.3 pg/mL and the “TNF-α, IL-1β, and/or IL-6 production, compound alone” value [2] was “minor increases”.
